In PubChem BioAssay (NCI):
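Following 48 hours of exposure in 96-well plates, responses at five concentrations were used to interpolate endpoints linearly. TGI: concentration producing complete growth inhibition.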

Legend:
Experiment in all cases: NCI anticancer screen, dose series, 48 h
[1] = system: HCT-15 colon
[2] = system: SN12C renal
[3] = system: U251 CNS
[4] = system: MALME-3M melanoma
[5] = system: MDA-MB-435
[6] = system: SK-OV-3 ovarian
[7] = system: HOP-62 NSCLC
[8] = system: MOLT-4 leukemia
[9] = system: SK-MEL-28 melanoma
[10] = system: HL-60(TB) leukemia
[11] = system: K-562 leukemia
[12] = system: NCI-H522 lung

Compound `C=CCOC(=O)Cn1cnc2c(N)ncnc21` has a TGI [1] greater than 100 µM, a TGI [2] greater than 100 µM and a TGI [3] greater than 100 µM. It also gave a TGI [4] greater than 100 µM, a TGI [5] greater than 100 µM and a TGI [6] greater than 100 µM. For the same compound, the TGI [7] was greater than 100 µM, the TGI [8] was greater than 100 µM and the TGI [9] was greater than 100 µM. The TGI [10] was greater than 100 µM and the TGI [11] was greater than 100 µM.

Work on `CCOC(=O)c1nc2ccccc2nc1Oc1cc(OC)cc(OC)c1` yielded a TGI [12] greater than 100 µM, a TGI [1] greater than 100 µM and a TGI [2] greater than 100 µM. It also gave a TGI [3] greater than 100 µM, a TGI [4] greater than 100 µM and a TGI [5] greater than 100 µM. It also gave a TGI [6] greater than 100 µM, a TGI [7] greater than 100 µM and a TGI [8] greater than 100 µM. For the same compound, the TGI [9] was greater than 100 µM and the TGI [11] was greater than 100 µM.

Work on `C=C=C[P+](c1ccccc1)(c1ccccc1)c1ccccc1` yielded a TGI [12] of 6 µM, a TGI [1] of 73.8 µM and a TGI [2] of 17.8 µM. For the same compound, the TGI [3] was 14.3 µM, the TGI [4] was 26.7 µM and the TGI [6] was greater than 100 µM. For the same compound, the TGI [7] was greater than 100 µM, the TGI [8] was 16.2 µM and the TGI [9] was 77.7 µM. For the same compound, the TGI [10] was 23.4 µM and the TGI [11] was 9.46 µM.

With `O=C1c2ccccc2C(=O)N1/N=C1/SC(=Nc2ccccc2)C(=Nc2ccccc2)N1c1ccccc1` the TGI [12] was greater than 100 µM, the TGI [1] was greater than 100 µM and the TGI [2] was greater than 100 µM. For the same compound, the TGI [3] was greater than 100 µM, the TGI [4] was greater than 84.7 µM and the TGI [5] was greater than 100 µM. For the same compound, the TGI [7] was greater than 100 µM, the TGI [8] was greater than 100 µM and the TGI [9] was greater than 69 µM. For the same compound, the TGI [10] was greater than 100 µM and the TGI [11] was greater than 100 µM.

Compound `CN(C)CCNc1ccc(NCC[N+](C)(C)Cc2ccc([N+](=O)[O-])cc2)c2c1C(=O)c1c(O)ccc(O)c1C2=O` has a TGI [1] greater than 100 µM, a TGI [2] greater than 100 µM and a TGI [3] greater than 100 µM. The TGI [5] was greater than 100 µM, the TGI [7] was greater than 100 µM and the TGI [8] was 8.8 µM. The TGI [9] was greater than 100 µM, the TGI [10] was greater than 100 µM and the TGI [11] was greater than 100 µM.

In the case of `CC(C)OC(=O)NCCn1cc(-c2ccccc2)nn1`, the TGI [12] is reported as greater than 100 µM, the TGI [1] is reported as greater than 100 µM and the TGI [2] is reported as greater than 100 µM. It also gave a TGI [3] greater than 100 µM, a TGI [4] greater than 100 µM and a TGI [5] greater than 100 µM. For the same compound, the TGI [7] was greater than 100 µM, the TGI [8] was greater than 100 µM and the TGI [9] was greater than 100 µM. The TGI [10] was greater than 100 µM and the TGI [11] was greater than 100 µM.

`CN1CCN(Cn2nc(COc3ccccc3Cl)n(/N=C/c3ccc(-c4ccc(Cl)cc4Cl)o3)c2=S)CC1` showed a TGI [12] of 56.1 µM, a TGI [1] of 74.3 µM and a TGI [3] of 34.6 µM. It also gave a TGI [5] of 64.5 µM, a TGI [6] greater than 100 µM and a TGI [7] of 45.7 µM. For the same compound, the TGI [8] was 62.1 µM, the TGI [9] was greater than 100 µM and the TGI [10] was 55.1 µM. For the same compound, the TGI [11] was 89.9 µM.

For `C#CCN(Cc1ccc2nc(-c3ccccc3)c(Cl)nc2c1)c1ccc(F)cc1`, the TGI [12] was greater than 100 µM, the TGI [1] was greater than 100 µM and the TGI [2] was greater than 100 µM. The TGI [3] was greater than 100 µM, the TGI [4] was greater than 100 µM and the TGI [5] was greater than 100 µM. The TGI [7] was greater than 100 µM, the TGI [8] was 44.6 µM and the TGI [9] was greater than 100 µM. For the same compound, the TGI [10] was 87.2 µM.

With `C=C(Br)C(C)(Cl)CCC(Br)C(C)(C)Br` (centres undefined) the TGI [12] was greater than 100 µM, the TGI [1] was greater than 100 µM and the TGI [2] was greater than 100 µM. It also gave a TGI [3] greater than 100 µM, a TGI [4] greater than 100 µM and a TGI [6] greater than 100 µM. For the same compound, the TGI [7] was greater than 100 µM, the TGI [8] was 83.1 µM and the TGI [10] was 54.5 µM. The TGI [11] was 80.9 µM.

For `COc1cccc2c1C(=O)c1c(O)c3c(c(O)c1C2=O)C[C@@](O)(C(=O)CO)CC3OC1CC(N(C)CCOCC(OC(C)=O)OC(C)=O)C(O)C(C)O1` (some centres undefined), the TGI [12] was greater than 0.01 µM, the TGI [2] was greater than 0.01 µM and the TGI [3] was greater than 0.01 µM. The TGI [4] was greater than 0.01 µM, the TGI [6] was greater than 0.01 µM and the TGI [7] was greater than 0.01 µM. The TGI [8] was greater than 0.01 µM, the TGI [9] was greater than 0.01 µM and the TGI [10] was greater than 0.01 µM. For the same compound, the TGI [11] was greater than 0.01 µM.

With `OCC(O)COCn1cc(Cn2ncc3c(SCc4ccccc4)ncnc32)nn1` (centres undefined) the TGI [12] was 73 µM, the TGI [1] was greater than 100 µM and the TGI [2] was greater than 100 µM. The TGI [3] was greater than 100 µM, the TGI [5] was greater than 100 µM and the TGI [6] was greater than 100 µM. It also gave a TGI [7] greater than 100 µM, a TGI [8] greater than 100 µM and a TGI [9] greater than 100 µM. It also gave a TGI [10] greater than 100 µM and a TGI [11] greater than 100 µM.

For `O=C(CC(NC(=O)OCc1ccccc1)C(=O)NC1Cc2ccccc2C1=O)OCc1ccccc1` (centres undefined), the TGI [12] was greater than 100 µM, the TGI [1] was greater than 100 µM and the TGI [2] was greater than 100 µM. It also gave a TGI [3] greater than 100 µM, a TGI [4] greater than 100 µM and a TGI [5] greater than 100 µM. For the same compound, the TGI [6] was greater than 100 µM, the TGI [7] was greater than 100 µM and the TGI [8] was greater than 100 µM. It also gave a TGI [9] greater than 100 µM and a TGI [11] greater than 100 µM.

For `O=C(c1ccc2ccccc2c1)C1(I)S(=O)(=O)OCCOS1(=O)=O`, the TGI [1] was greater than 100 µM, the TGI [2] was greater than 100 µM and the TGI [3] was greater than 100 µM. It also gave a TGI [4] greater than 100 µM, a TGI [5] greater than 100 µM and a TGI [7] greater than 100 µM. It also gave a TGI [8] greater than 100 µM, a TGI [9] greater than 100 µM and a TGI [10] greater than 100 µM. The TGI [11] was greater than 100 µM.

Work on `O=C(O)C(Cc1cc(I)c(O)c(I)c1)C1CCCCC1` (centres undefined) yielded a TGI [12] greater than 100 µM, a TGI [1] greater than 100 µM and a TGI [2] greater than 100 µM. For the same compound, the TGI [3] was 54.6 µM, the TGI [4] was greater than 100 µM and the TGI [5] was greater than 100 µM. It also gave a TGI [7] greater than 100 µM, a TGI [8] of 76.2 µM and a TGI [9] greater than 100 µM. The TGI [11] was greater than 100 µM.

Compound `CCCCNC(=O)OCCN=c1c2ccccc2ccc2ccccc12` has a TGI [1] greater than 100 µM, a TGI [2] greater than 100 µM and a TGI [3] greater than 100 µM. The TGI [4] was greater than 100 µM, the TGI [5] was greater than 100 µM and the TGI [6] was greater than 100 µM. The TGI [7] was greater than 100 µM, the TGI [8] was greater than 100 µM and the TGI [9] was greater than 100 µM. For the same compound, the TGI [10] was greater than 100 µM and the TGI [11] was greater than 100 µM.

`Fc1ccc(Nc2nc(Cl)c3[nH]cnc3n2)cc1Cl` was tested, and the TGI [12] was greater than 100 µM, the TGI [1] was greater than 100 µM and the TGI [2] was greater than 100 µM. It also gave a TGI [3] greater than 100 µM, a TGI [4] greater than 100 µM and a TGI [5] greater than 100 µM. It also gave a TGI [6] greater than 100 µM, a TGI [7] greater than 100 µM and a TGI [8] greater than 100 µM. The TGI [9] was greater than 100 µM and the TGI [10] was greater than 100 µM.

In the case of `CN1CCN(c2cc3[nH]c4cc(O)cc(O)c4c(=O)c3cc2N)CC1`, the TGI [12] is reported as 63.5 µM, the TGI [1] is reported as greater than 100 µM and the TGI [2] is reported as 3.43 µM. It also gave a TGI [3] of 68.5 µM, a TGI [4] of 67.4 µM and a TGI [5] of 42.4 µM. It also gave a TGI [7] greater than 100 µM, a TGI [8] of 4.58 µM and a TGI [9] of 83.4 µM. The TGI [10] was greater than 100 µM and the TGI [11] was 36.1 µM.

Work on `CN(C)c1cccc(-c2cc(=S)c3cc4c(cc3[nH]2)OCO4)c1` yielded a TGI [12] of 67.7 µM, a TGI [1] greater than 100 µM and a TGI [2] greater than 100 µM. The TGI [3] was greater than 100 µM, the TGI [4] was greater than 100 µM and the TGI [6] was greater than 100 µM. The TGI [7] was greater than 100 µM, the TGI [8] was greater than 93 µM and the TGI [9] was greater than 100 µM. The TGI [11] was greater than 100 µM.

`Cc1nc2ccc(F)cc2c2c1CCS2` gave a TGI [12] greater than 100 µM, a TGI [1] greater than 100 µM and a TGI [3] greater than 100 µM. It also gave a TGI [4] greater than 100 µM, a TGI [5] greater than 100 µM and a TGI [7] greater than 100 µM. It also gave a TGI [8] greater than 100 µM, a TGI [9] greater than 100 µM and a TGI [10] of 47.6 µM. The TGI [11] was 94.5 µM.

For `CCN(CC)C(=O)CCn1ccc(=O)[nH]c1=O`, the TGI [12] was greater than 100 µM, the TGI [1] was greater than 100 µM and the TGI [2] was greater than 100 µM. It also gave a TGI [3] greater than 100 µM, a TGI [4] greater than 100 µM and a TGI [7] greater than 100 µM. For the same compound, the TGI [8] was greater than 100 µM, the TGI [9] was greater than 100 µM and the TGI [10] was greater than 100 µM. It also gave a TGI [11] greater than 100 µM.
